Source: patent US10072035B2, “Phenanthroline phosphonic acid derivative and preparation method therefor and application thereof” (Guangzhou Beryl Therapeutics, Inc, priority 2014, dated 2018)
Values belong to the molecule of their own block, whether it stands above or below them.

What was measured:
[1] = biological target: T1, human P4H enzyme (Homo sapiens, UniProt P13674); assay: P4H enzymatic activity, coupled succinyl CoA synthase / MLG phosphate assay; assay type: biochemical; conditions: 50 nM P4H, 100 uM 2-oxoglutarate, 45 min at 25° C., n=2, FIG. 1
T1 construct: made in house; host or cells: E. coli Origami2(DE3)
T1 sequence (P13674 18-534): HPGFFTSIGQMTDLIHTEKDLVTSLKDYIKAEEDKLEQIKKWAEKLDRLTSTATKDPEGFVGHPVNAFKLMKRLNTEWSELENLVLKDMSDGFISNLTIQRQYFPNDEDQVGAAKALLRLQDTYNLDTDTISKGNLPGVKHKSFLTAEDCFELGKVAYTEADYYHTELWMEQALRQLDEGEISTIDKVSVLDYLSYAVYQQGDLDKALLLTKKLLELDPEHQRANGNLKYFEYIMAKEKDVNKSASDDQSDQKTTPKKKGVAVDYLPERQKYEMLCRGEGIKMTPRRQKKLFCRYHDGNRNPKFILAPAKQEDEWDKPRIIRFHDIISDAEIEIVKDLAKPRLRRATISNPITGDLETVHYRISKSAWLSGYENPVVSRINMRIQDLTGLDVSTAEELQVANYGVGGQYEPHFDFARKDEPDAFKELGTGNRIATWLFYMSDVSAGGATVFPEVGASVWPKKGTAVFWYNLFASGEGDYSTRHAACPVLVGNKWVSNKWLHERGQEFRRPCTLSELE
T1 sequence (P07237 18-508 partner): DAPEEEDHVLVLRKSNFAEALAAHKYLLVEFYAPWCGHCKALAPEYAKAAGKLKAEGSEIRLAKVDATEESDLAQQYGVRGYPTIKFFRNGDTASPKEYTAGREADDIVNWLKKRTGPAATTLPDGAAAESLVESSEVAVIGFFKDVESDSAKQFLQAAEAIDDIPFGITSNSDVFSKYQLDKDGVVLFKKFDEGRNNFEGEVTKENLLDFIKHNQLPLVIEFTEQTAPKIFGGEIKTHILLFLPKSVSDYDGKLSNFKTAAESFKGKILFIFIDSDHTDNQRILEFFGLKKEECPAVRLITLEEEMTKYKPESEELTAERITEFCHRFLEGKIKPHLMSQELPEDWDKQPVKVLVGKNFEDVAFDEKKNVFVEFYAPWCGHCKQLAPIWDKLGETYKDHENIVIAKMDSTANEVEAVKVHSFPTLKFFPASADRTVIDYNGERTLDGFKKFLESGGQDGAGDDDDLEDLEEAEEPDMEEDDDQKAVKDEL
Source text: Human recombinant P4H was expressed in E. coli. Briefly, DNA encoding the signal sequence of P4H was cloned into pET28_N-His_TEV, the resulting plasmid pET28_N-His_TEV_P4HA1/PDI was transferred to E. coli Origami2(DE3) to co-expressed. The enzyme obtained was purified with MonoQ ion-exchange column, TEV digested and confirmed by MS, passed through Histrap HP column, finally purified with Hiload16/60 superdex 200 column.
The measurement of the enzymatic activity of purified P4H zymoprotein and the assay of the influence of the compound to the enzymatic activity were performed at the following coupling enzymatic reaction system: 100 mM Tris (pH7.0), 0.1 mM (NH4)2Fe(SO4)2, 0.1 mM ascorbic acid, 0.2 mM CoA, 0.2 mM ATP, 0.5 uM succinyl CoA synthase, 100 uM 2-oxoglutarate, 100 uM (Pro-Pro-Gly)10peptide, 50 nM P4H enzyme, 50 ul total. After 45 min reaction at 25° C., 10 ul MLG R1 was added and reacted for 10 min, 10 ul MLG R2 was added and reacted for 20 min. P4H catalyst 2-oxoglutaric acid and polypeptide with coenzyme and suitable enzyme reaction environment to give product succinic acid. The product succinic acid then produced succinyl CoA and phosphoric acid with the action of succinyl CoA synthase. The level of generated phosphoric acid could be measured by MLG, which reflects the level of P4H. The generated green product (MG+)(H2PMo12O40) was measured at OD 630 nm. […]

[2] = Concentration of compound 16c and 9c in liver after PO dosing of compound 27; assay type: in vivo, Wistar rats; conditions: rat; for concentration at 0.25 h / concentration at 0.75 h / concentration at 8 h / concentration at 24 h: both sexes, Wistar, liver; for concentration at 0.25 h: 0.25 h after oral administration of compound 27 (39 mg/kg); for concentration at 0.75 h: 0.75 h after oral administration of compound 27 (39 mg/kg); for concentration at 8 h: 8 h after oral administration of compound 27 (39 mg/kg); for concentration at 24 h: 24 h after oral administration of compound 27 (39 mg/kg); for Conversion of prodrug in vivo: after PO dosing of compound 27
Procedure: 16 Wistar rats (200±20 g) were divided into 4 groups randomly, female and male each half in each group, ate and drank freely before the experiment. After PO dosing of compound 27 (39 mg·kg^−1), rats were sacrificed at each time point 15 min, 45 min, 8 h, 24 h. Liver samples were collected, washed off blood and contents with saline, cut into small pieces, and stirred evenly. 1 g was weighed. 1 mL Methanol/water was added. After homogenated, additional 1 mL methanol/water was added. The mixture was sonicated for 15 seconds, centrifuged (4500 rpm) for 10 minutes. The upper clear solution was tested using LC-MS/MS method to give the concentration of compound 16c and 9c in liver at different time points after administration (table 2).

[3] = test system: myocardial infarction; conditions: in vivo; cited from earlier work
[4] = In-vivo pharmacokinetics in plasma of rats; parameters: species or system Wistar rats
Procedure: Wistar rats (200±20 g) were divided into 2 groups, 6 each, half female and half male in each group, ate and drank freely. The first group was given compound 16c 3 mg·kg^−1 caudal-intravenously. The second group was orally administered disodium salt of compound 27 (39 mg·kg^−1). Blood (0.3 mL) was collected from retroorbital vein at time point 0 h, 0.08 h, 0.17 h, 0.33 h, 0.5 h, 0.75 h, 1 h, 1.5 h, 2 h, 3 h, 5 h, 7 h, placed into cold heparinized Eppendorf tubes. The samples were centrifuged at 4° C. (15000 rpm) for 5 min. Transfer 100 μL plasma sample to −80° C. freezer for test.
Quantitative LC-MS/MS analysis methods of compound 9c and prodrug 16c in plasma were set up, using diazepam and mildronate as internal standard, respectively. (Prodrug 27 was not detected under experimental condition from plasma) the plasma sample was tested and analyzed. (result see in Table 1 and FIG. 2)
Oral Bioavailability was calculated according to compound 16c in plasma. Area under concentration-time curve (AUC) of PO dosing was divided by AUC of iv dosing of same amount of drugs, expressed as absorption percentage: Bioavailability (F)=AUCpo·Miv/AUCiv·Mpo×100%. Wherein, Miv means the molar concentration of drugs by iv dosing, and Mpo means the molar concentration of drugs by PO dosing. The AUC0-t of compound 16c in plasma

[5] = test system: BDL rats having liver fibrosis; assay: Bile Duct Ligation induced liver fibrosis model in rats; assay type: in vivo, Wistar rats
Source text: This experiment used Bile Duct Ligation to induce liver fibrosis model in rats. Treatment of BDL rats with PO dosing prodrug 27 was studied.
Briefly, Wistar rats (200±20 g) were divided into 3 groups, half female and half male in each group:
SHAM group: 6 rats were anaesthetized, the abdominal skin was shaved and sterilized regularly, the common bile duct was exposed by an upper abdominal midline incision with sterile operation. Muscle and skins were sutured separately.
liver fibrosis MODEL group: 12 rats were anaesthetized, the abdominal skin was shaved and sterilized regularly, the common bile duct was exposed and ligated by an upper abdominal midline incision with sterile operation. Muscle and skins were sutured separately.
Dosing group: 12 rats were anaesthetized, the abdominal skin was shaved and sterilized regularly, the common bile duct was exposed and ligated by an upper abdominal midline incision with sterile operation. Muscle and skins were sutured separately. After operation, disodium salt of compound 27 (30 mg/kg) was dissolved in water and dosed orally to the rats once per day test indexes:
After 2 weeks, measure the ALT and AST of serium and liver homogenate
After 2 weeks, rats were sacrificed, and liver performed HE staining and Masson staining.

[6] = test system: hepatic stellate cells; conditions: cited from earlier work
[7] = cited from earlier work
[8] = both sexes, rat, compound 16c in plasma after compound 16c IV 3 mg/kg, Wistar rats

Structure (SMILES): O=P(O)(O)c1cnc2c(ccc3c(O)ccnc32)c1 [Compound 9c, 7-hydroxy-1,10-phenanthrolin-3-yl phosphonic acid]
- IC50 [1]: 8.1 µM
- concentration at 0.25 h [2]: 16.1 ng/g
- concentration at 0.75 h [2]: 64.2 ng/g
- concentration at 8 h [2]: 44.7 ng/g
- concentration at 24 h [2]: 3.55 ng/g

Structure (SMILES): O=C(O)c1c[nH]c2c(ccc3cccnc32)c1=O [FG-041, 1,4-dihydrophenanthrol-4-one-3-carboxylic acid]
- myocardial infarction in animal experiment [3]: prevent myocardial infarction

Structure (SMILES): COCCNC(=O)c1ccnc(C(=O)NCCOC)c1 [HOE077]
- activation of hepatic stellate cells [6]: inhibits
- expression of procollagen mRNA [6]: inhibits
- hepatic stellate cells proliferation [6]: reduces
- synthesis of total protein of cell [6]: no effect
- side effects in clinical trials [7]: severe side effects (cataract)

Second part, led by results:

- Detection of prodrug 27 in plasma ([4]; LC-MS/MS, after PO dosing 39 mg/kg): not detected
- Conversion of prodrug in vivo [2]: converted to compound 16c in rat
Structure (SMILES): O=c1ccn(COP(=O)(O)O)c2c1ccc1cc(P3(=O)OCC[C@@H](c4cccc(Cl)c4)O3)cnc12 (stereo partly drawn) [Compound 27, (3-(4S-4-(3-chlorophenyl)-1,3,2-dioxaphosphinan-2-one-2-yl)-1,10-phenanthrolin-7-one)-10(7H)-methyl phosphoric acid]
- ALT in serum ([5]; BDL rats, 30 mg/kg PO once per day, 2 weeks, MODEL 144.4 ± 15.94, SHAM 67.1 ± 5.45): 74.4 ± 17.82 IU/L
- AST in serum ([5]; BDL rats, 30 mg/kg PO once per day, 2 weeks, MODEL 207.2 ± 30.96, SHAM 67.7 ± 4.67): 87.2 ± 12.51 IU/L
- H&E staining of rat liver ([5]; BDL, PO 30 mpk, 2 weeks, FIG. 5): varies the pathological changes of hepatic tissue
- ALT and AST of the serium and liver homogenate versus model group ([5]; after 14 days of administration, P<0.01): decreased significantly
- ALT in liver ([5]; liver homogenate, BDL rats, 30 mg/kg PO once per day, 2 weeks, MODEL 136.8 ± 16.48): 76.4 ± 11.35 IU/L
- AST in liver ([5]; liver homogenate, BDL rats, 30 mg/kg PO once per day, 2 weeks, MODEL 198.75 ± 27.70): 91.42 ± 8.79 IU/L

- AUC0-t of compound 16c in plasma ([4]; after compound 16c 3 mg/kg intravenously): 2060 µg·h/L
- AUC(0-inf) [4, 8]: 2140 ng·h/mL
- AUC(0-t) [4, 8]: 2060 ng·h/mL
- Cmax ([4]; both sexes, rat, compound 16c in plasma after compound 16c IV 3 mg/kg, Wistar rats, read-out: Cmax (peak concentration in plasma)): 1620 ng/mL
- half-life ([4]; both sexes, rat, compound 16c in plasma after compound 16c IV 3 mg/kg, Wistar rats, read-out: t1/2 (half life of drug in plasma) (converted)): 90 min
- concentration at 0.25 h [2]: 522 ng/g
- concentration at 0.75 h [2]: 662 ng/g
- concentration at 8 h [2]: 584 ng/g
- concentration at 24 h [2]: 50.9 ng/g
- Conversion of prodrug in vivo [2]: converted to compound 9c in liver
Structure (SMILES): O=P1(c2cnc3c(ccc4c(O)ccnc43)c2)OCC[C@@H](c2cccc(Cl)c2)O1 (stereo partly drawn) [Compound 16c, (4S)-4-(3-chlorophenyl)-2-(7-hydroxy-1,10-phenanthrolin-3-yl)-1,3,2-dioxaphosphinan-2-one]
